Here are results for two compounds from patent US20180228815A1, “NARINGENIN AND ASIATIC ACID COMBINATION TREATMENT OF CANCERS” (The Chinese University of Hong Kong, priority 2016, published 2018).

Each structure is given as a SMILES string.

For one series, the system named is NK1.1+ NK cells. Put plainly: Two-color immunofluorescence of IFN-γ+ and granzyme B+ NK cells in LLC tumor microenvironment. The series is classed as in vivo, mouse. The method, then:
FIGS. 13A-13G. […] NK1.1+ cells (green), IFN-γ+ or granzyme B+ cells (red), DAPI (blue). Each error bar represents the mean±SEM for groups of three to four mice. * p<0.05, ** p<0.01, *** p<0.001 compared to Ctrl; ## p<0.01, ### p<0.001 as indicated. Scale bar, 100 μm. […] (FIGS. 13E, 13F) Effect of AA (10 μmol), NG ([…]), and their combination on levels of IFN-γ and granzyme B in supernatant of cultured splenic NK cells with TGF-β1 (5 ng/ml) detected by ELISA. (FIG. 13G) NK cell cytotoxicity assay with LLC as target cells at E:T ratio of 5:1, 10:1 and 20:1. Each error bar represents the mean±SEM for groups of three independent experiments. * p<0.05, ** p<0.01, *** p<0.001 compared to TGF-β1; # p<0.05, ## p<0.01, ### p<0.001 as indicated. Immunofluorescence staining was performed with 5 μm PLP fixed frozen sections of mouse tumor tissue to detect NK cell infiltration in tumor microenvironment and the protein levels of p-Smad3, Smad7, IFN-γ and granzyme B in these tumor infiltrated NK cells. Primary antibodies used for immunofluorescence staining include Alexa488 conjugated anti-mouse NK-1.1 (Biolegend, CA, USA), PE conjugated anti-mouse NKp46 (eBioscience Inc., CA, USA), anti-p-Smad2/3 (Santa Cruz Biotechnology, Santa Cruz, Calif.), anti-Smad7, anti-interferon gamma and anti-granzyme B (Abcam, MA, USA). All slides were mounted with DAPI containing mounting medium then analyzed with fluorescence microscope (Leica Microsystems, Wetzlar, Germany).

Another series concerns B16F10 melanoma cells. The experiment in a line: NK cell cytotoxicity assay (LDH release). The conditions noted are these: E:T ratio of 5:1, 10:1 and 20:1. The format is cell-based, mouse. How it is done: It was next assessed whether the combination therapy enhances the tumor-killing capacity of NK cells by co-culturing […] NK cells with B16F10 melanoma cells at ratio of 5:1, 10:1 and 20:1. […] B16F10 melanoma cells were harvested as target cells and bone marrow-derived NK cells treated with AA or NG for 24 hours were harvested as effector cells. Cells were thoroughly washed and seeded in 96-well plates at the effector: target (E:T) ratios of 5:1, 10:1 and 20:1. Incubated in 5% CO2 incubator at 37° C. for 6 hours then detect the LDH release of each well with CytoTox 96® Non-Radioactive Cytotoxicity Assay kit (Promega Corporation, WI, USA). Read absorbance at 490 nm and calculated the percentage of NK cell mediated cytotoxicity with the following formula.
Background: Release of lactate dehydrogenase indicates damage to the cell membrane.

The test system of another series is p-Smad3, Smad7. The experiment in a line: Western blot of p-Smad3 and Smad7 in bone marrow-derived NK cells with TGF-β1. The format is cell-based, mouse. Conditions: 10 μM of AA, 100 μM of NG; TGF-β1 (5 ng/ml). How it is done: FIGS. 14A-14C. […] (FIGS. 14A, 14B) Two-color immunofluorescence detecting NK1.1+ p-Smad3+ and NK1.1+ Smad7+ NK cells in LLC tumor microenvironment. NK1.1+ cells (green), p-Smad3+ or Smad7+ cells (red), DAPI (blue). […] Scale bar, […]. […] To further explore the mechanism of combination therapy facilitating NK cell immunity against cancer in TGF-β rich microenvironment, 10 μM of AA and 100 μM of NG (according to the molar ratio in vivo) were applied on bone marrow-derived NK cells in vitro. […] After euthanasia, bone marrow cells were isolated from C57BL/6 mice following the protocol as previously described (10). Bone marrow cells were then seeded at the density of 1×10^6 cells/ml in MEMα medium (Gibco, Thermo Fisher Scientific Inc., MA, USA) containing 10% FBS supplemented with 1 ng/ml IL-7, 10 ng/ml Flt3L, 30 ng/ml SCF, 50 ng/ml IL-15 (Peprotech, NJ, USA) and […] β-Mercaptoethanol (Gibco, Thermo Fisher Scientific Inc., MA, USA) and cultured for 4 days. Then transferred cells to MEMα medium containing 10% FBS supplemented with 50 ng/ml IL-15, 20 ng/ml IL-2 and […] β-Mercaptoethanol to induce NK cells maturation for another 3 days. Tumor tissues and cultured NK cells were lysed with ice-cold RIPA buffer, and then protein was isolated as previously described (2 6). Membranes were blocked with 5% BSA in PBS for 1 hour at room temperature before incubated with primary antibodies against Smad7, Id2, β-actin (Santa Cruz Biotechnology, Santa Cruz, Calif., USA), p-Smad3 and IRF2 (Cell signaling, MA, USA) overnight at 4° C., subsequently incubated with IRDye 800-conjugated secondary antibodies (Rockland immunochemicals, PA, USA). Target protein expression was then detected by LiCor/Odyssey infrared image system (LI-COR Biosciences, NE, USA) and analyzed with Image J software (NIH, Bethesda, Md., USA).
On the technique in general: A western blot detects proteins with antibodies after separation by electrophoresis.

For the compound `C[C@H]1[C@H](C)CC[C@]2(C(=O)O)CC[C@]3(C)C(=CC[C@@H]4[C@@]5(C)C[C@@H](O)[C@H](O)[C@@](C)(CO)[C@@H]5CC[C@]43C)[C@H]12` [AA, Asiatic acid], in the series on NK1.1+ NK cells, the “IFN-γ-producing NK cells (IFN-γ+ NK1.1+ cells)” value is listed as “significantly increased” and the “granzyme B-secreting NK cells (GB+ NK1.1+ cells)” value was “significantly increased”. The “NK cell-mediated cytotoxicity against melanoma cells” value in the series on B16F10 melanoma cells is recorded as “increased”. Besides, in the series on p-Smad3, Smad7, the “TGF-β1-increased phosphorylation level of Smad3” value is listed as “attenuated” and the “TGF-β1-induced suppression of Smad7 expression” value is “capable of restoring”.
Consider `O=C1CC(c2ccc(O)cc2)Oc2cc(O)cc(O)c21` (stereo not shown) [NG, 5,7-dihydroxy-2-(4-hydroxyphenyl)chroman-4-one], for which, in the series with NK1.1+ NK cells, the “IFN-γ-producing NK cells (IFN-γ+ NK1.1+ cells)” value is listed as “significantly increased” and the “granzyme B-secreting NK cells (GB+ NK1.1+ cells)” value is recorded as “significantly increased”. The “NK cell-mediated cytotoxicity against melanoma cells” value with B16F10 melanoma cells is “increased”. Further, in the series with p-Smad3, Smad7, the “TGF-β1-increased phosphorylation level of Smad3” value is given as “attenuated” and the “TGF-β1-induced suppression of Smad7 expression” value is reported as “capable of restoring”.
